Values quoted from earlier work in US11576871B2 (The Regents of the University of California, priority 2016, dated 2023).

Experiments:
[1] = test system: intracellular cystine in circulating white blood cells
[2] = children with cystinosis

SMILES: NCCS [cysteamine, Cysteamine]
- time to observed decrease in leukocyte cystine ([1]; delivery of cysteamine to the small intestine (WO 2007/089670)): within an hour
- depletion of intracellular cystine ([1]; taken regularly, measured in circulating white blood cells): up to 90%

SMILES: COc1ccc2c(c1)c(CC(=O)O)c(C)n2C(=O)c1ccc(Cl)cc1 [indomethacin]
- reduction of urine volume (and liquid consumption) [2]: about 30%
